Laboratory results: patent US4677100A, “Cephalosporin derivatives” (Banyu Pharmaceutical Co., Ltd., priority 1984, dated 1987)
Converted amounts (≈) assume the structure as drawn. Like-named read-outs stand apart in the source and are kept apart here.

Legend:
[1] = test system: S. aureus Smith; experiment: treatment of experimental infection of mice; type: in vivo; settings: Staphylococcus aureus
[2] = test system: P. maltophilia IID 1275; experiment: MIC, agar plate dilution method; type: cell-based, Pseudomonas maltophilia; settings: Stenotrophomonas maltophilia
Outline: (§1)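 Read-out is the minimum inhibitory concentration in μg/ml, obtained by the agar plate dilution method using an inoculum size of 10^6 CFU/ml.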

[3] = test system: P. aeruginosa D15; experiment: treatment of experimental infection of mice; type: in vivo; settings: Pseudomonas aeruginosa, D15
[4] = test system: E. coli CSH2; experiment: MIC, agar plate dilution method; type: cell-based; settings: 10^6 CFU/ml, Sensitivity Disk Agar; for MIC: Escherichia coli, read-out: Minimum Inhibitory Concentration
Outline: as §1

[5] = test system: S. marcescens No. 16-2; experiment: MIC, agar plate dilution method; type: cell-based; settings: Serratia marcescens
Outline: as §1

[6] = test system: E. coli C/Rms149; experiment: MIC, agar plate dilution method; type: cell-based; settings: for MIC: Escherichia coli, read-out: Minimum Inhibitory Concentration
Outline: (§2)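 MIC values (μg/ml) were determined by agar plate dilution on Sensitivity Disk Agar with an inoculum of 10^6 CFU/ml. Cefotaxime and ceftazidime were run alongside as comparators.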

[7] = test system: A. calcoaceticus No. 14; experiment: MIC, agar plate dilution method; type: cell-based; settings: Acinetobacter calcoaceticus
Outline: as §1

[8] = test system: P. mirabilis JY10; experiment: MIC, agar plate dilution method; type: cell-based; settings: Proteus mirabilis
Outline: as §1

[9] = test system: E. cloaceae Nek 39; experiment: MIC, agar plate dilution method; type: cell-based; settings: read-out: Minimum Inhibitory Concentration
Outline: as §1

[10] = test system: P. vulgaris No. 33; experiment: MIC, agar plate dilution method; type: cell-based; settings: Proteus vulgaris
Outline: as §1

[11] = test system: K. pneumoniae No. 42; experiment: MIC, agar plate dilution method; type: cell-based; settings: Klebsiella pneumoniae
Outline: as §1

[12] = test system: E. coli CSH; experiment: MIC, agar plate dilution method; type: cell-based; settings: for Minimum Inhibitory Concentration: E. coli CSH, 10^6 CFU/ml, Sensitivity Disk Agar; for MIC: Escherichia coli, read-out: Minimum Inhibitory Concentration
Outline: as §2

[13] = test system: E. coli W3630/Rms213; experiment: MIC, agar plate dilution method; type: cell-based; settings: for Minimum Inhibitory Concentration: E. coli W3630/Rms213, 10^6 CFU/ml, Sensitivity Disk Agar; for MIC: Escherichia coli, W3630/RMS213, read-out: Minimum Inhibitory Concentration
Outline: as §2

[14] = test system: E. coli ML1410/Rte16; experiment: MIC, agar plate dilution method; type: cell-based; settings: for MIC: Escherichia coli, ML1410/RTE16, read-out: Minimum Inhibitory Concentration
Outline: as §2

[15] = test system: E. coli NIHJJC-2; experiment: MIC, agar plate dilution method; type: cell-based; settings: for MIC: Escherichia coli
Outline: as §1

[16] = test system: E. coli W3630/Rms212; experiment: MIC, agar plate dilution method; type: cell-based; settings: for Minimum Inhibitory Concentration: E. coli W3630/Rms212, 10^6 CFU/ml, Sensitivity Disk Agar; for MIC: Escherichia coli, W3630/RMS212, read-out: Minimum Inhibitory Concentration
Outline: as §2

[17] = test system: P. vulgaris OB1043; experiment: MIC, agar plate dilution method; type: cell-based; settings: Proteus vulgaris
Outline: as §1

[18] = test system: C. freundii No. 7; experiment: MIC, agar plate dilution method; type: cell-based; settings: Citrobacter freundii
Outline: as §1

[19] = test system: S. aureus JS-1; experiment: MIC, agar plate dilution method; type: cell-based; settings: Staphylococcus aureus
Outline: as §1

[20] = test system: S. aureus NIHJJC-1; experiment: MIC, agar plate dilution method; type: cell-based; settings: Staphylococcus aureus
Outline: as §1

[21] = test system: P. aeruginosa AKR17; experiment: MIC, agar plate dilution method; type: cell-based, Pseudomonas aeruginosa; settings: Pseudomonas aeruginosa
Outline: as §1

[22] = test system: P. aeruginosa AK109; experiment: MIC, agar plate dilution method; type: cell-based, Pseudomonas aeruginosa; settings: Pseudomonas aeruginosa
Outline: as §1

[23] = test system: E. coli Juhl; experiment: treatment of experimental infection of mice; type: in vivo; settings: Escherichia coli
[24] = test system: P. cepacia 23; experiment: MIC, agar plate dilution method; type: cell-based, Pseudomonas cepacia
Outline: as §1

[25] = test system: Gram-negative bacteria; settings: background of the art; cited from earlier work
[26] = test system: Gram-positive bacteria; settings: background of the art; cited from earlier work
[27] = test system: Gram-positive bacteria and Gram-negative bacteria; settings: background of the art; cited from earlier work

CC(C)(O/N=C(\C(=O)N[C@@H]1C(=O)N2C(C(=O)[O-])=C(C[n+]3ccccc3)CS[C@H]12)c1csc(N)n1)C(=O)O [Ceftazidime, reference compound]
ED50 [1]: 11 mg/kg
MIC ([2]; IID1275, read-out: Minimum Inhibitory Concentration): > 25 µg/mL
ED50 [3]: 38 mg/kg
Minimum Inhibitory Concentration [4]: 0.1 µg/mL
MIC [4]: 0.1 µg/mL (≈ 0.183 µM)
MIC ([5]; NO.162, read-out: Minimum Inhibitory Concentration): 1.56 µg/mL (≈ 2.85 µM)
Minimum Inhibitory Concentration ([6]; E. coli C/Rms149, 10^6 CFU/ml, Sensitivity Disk Agar): 0.20 µg/mL
MIC [6]: 0.2 µg/mL (≈ 0.366 µM)
MIC ([7]; NO.14, read-out: Minimum Inhibitory Concentration): 6.25 µg/mL (≈ 11.4 µM)
MIC ([8]; JY10, read-out: Minimum Inhibitory Concentration): ≤ 0.05 µg/mL
MIC [9]: 0.78 µg/mL (≈ 1.43 µM)
MIC ([10]; NO.33, read-out: Minimum Inhibitory Concentration): ≤ 0.05 µg/mL
MIC ([11]; NO.42, read-out: Minimum Inhibitory Concentration): 0.39 µg/mL (≈ 0.714 µM)
Minimum Inhibitory Concentration [12]: 0.10 µg/mL
MIC [12]: 0.1 µg/mL (≈ 0.183 µM)
Minimum Inhibitory Concentration [13]: 0.20 µg/mL
MIC [13]: 0.2 µg/mL (≈ 0.366 µM)
Minimum Inhibitory Concentration ([14]; E. coli ML1410/Rte16, 10^6 CFU/ml, Sensitivity Disk Agar): 0.20 µg/mL
MIC [14]: 0.2 µg/mL (≈ 0.366 µM)
Minimum Inhibitory Concentration ([15]; E. coli NIHJJC-2, 10^6 CFU/ml, Sensitivity Disk Agar): 0.1 µg/mL
MIC ([15]; NIHJJC2, read-out: Minimum Inhibitory Concentration): 0.1 µg/mL (≈ 0.183 µM)
Minimum Inhibitory Concentration [16]: 0.20 µg/mL
MIC [16]: 0.2 µg/mL (≈ 0.366 µM)
MIC ([17]; OB1043, read-out: Minimum Inhibitory Concentration): ≤ 0.05 µg/mL
MIC ([18]; NO.7, read-out: Minimum Inhibitory Concentration): 1.56 µg/mL (≈ 2.85 µM)
MIC ([19]; JS1, read-out: Minimum Inhibitory Concentration): > 25 µg/mL
MIC ([20]; NIHJJC1, read-out: Minimum Inhibitory Concentration): 3.12 µg/mL (≈ 5.71 µM)
MIC ([21]; AKR17, read-out: Minimum Inhibitory Concentration): > 25 µg/mL
MIC ([22]; AK109, read-out: Minimum Inhibitory Concentration): 0.39 µg/mL (≈ 0.714 µM)
ED50 [23]: 0.33 mg/kg
MIC ([24]; Burkholderia cepacia, 23, read-out: Minimum Inhibitory Concentration): 0.39 µg/mL (≈ 0.714 µM)
antibacterial activity (in words) [25]: the most excellent cephalosporin derivative against Gram-negative bacteria

CO/N=C(\C(=O)N[C@@H]1C(=O)N2C(C(=O)O)=C(COC(C)=O)CS[C@H]12)c1csc(N)n1 [Cefotaxime, reference compound]
MIC ([2]; IID1275, P. maltophilia IID 1275, 10^6 CFU/ml, Sensitivity Disk Agar, read-out: Minimum Inhibitory Concentration): > 25 µg/mL
antibacterial activity (in words) [26]: relatively poor antibacterial activities
MIC [4]: ≤ 0.05 µg/mL
MIC ([5]; NO.162, S. marcescens No. 16-2, 10^6 CFU/ml, Sensitivity Disk Agar, read-out: Minimum Inhibitory Concentration): 6.25 µg/mL (≈ 13.7 µM)
MIC [6]: ≤ 0.05 µg/mL
MIC ([7]; A. calcoaceticus No. 14, 10^6 CFU/ml, Sensitivity Disk Agar, read-out: Minimum Inhibitory Concentration): 25 µg/mL (≈ 54.9 µM)
MIC ([8]; P. mirabilis JY10, 10^6 CFU/ml, Sensitivity Disk Agar, read-out: Minimum Inhibitory Concentration): ≤ 0.05 µg/mL
MIC ([9]; E. cloaceae Nek 39, 10^6 CFU/ml, Sensitivity Disk Agar): 0.78 µg/mL (≈ 1.71 µM)
MIC ([10]; P. vulgaris No. 33, 10^6 CFU/ml, Sensitivity Disk Agar, read-out: Minimum Inhibitory Concentration): ≤ 0.05 µg/mL
MIC ([11]; K. pneumoniae No. 42, 10^6 CFU/ml, Sensitivity Disk Agar, read-out: Minimum Inhibitory Concentration): ≤ 0.05 µg/mL
Minimum Inhibitory Concentration [12]: 0.10 µg/mL
MIC [12]: 0.1 µg/mL (≈ 0.22 µM)
Minimum Inhibitory Concentration [13]: 0.20 µg/mL
MIC [13]: 0.2 µg/mL (≈ 0.439 µM)
MIC [14]: ≤ 0.05 µg/mL
MIC ([15]; NIHJJC2, E. coli NIHJJC-2, 10^6 CFU/ml, Sensitivity Disk Agar, read-out: Minimum Inhibitory Concentration): ≤ 0.05 µg/mL
Minimum Inhibitory Concentration [16]: 0.10 µg/mL
MIC [16]: 0.1 µg/mL (≈ 0.22 µM)
MIC ([17]; P. vulgaris OB1043, 10^6 CFU/ml, Sensitivity Disk Agar, read-out: Minimum Inhibitory Concentration): 0.39 µg/mL (≈ 0.856 µM)
MIC ([18]; C. freundii No. 7, 10^6 CFU/ml, Sensitivity Disk Agar, read-out: Minimum Inhibitory Concentration): 0.39 µg/mL (≈ 0.856 µM)
MIC ([19]; JS1, S. aureus JS-1, 10^6 CFU/ml, Sensitivity Disk Agar, read-out: Minimum Inhibitory Concentration): 6.25 µg/mL (≈ 13.7 µM)
MIC ([20]; NIHJJC1, S. aureus NIHJJC-1, 10^6 CFU/ml, Sensitivity Disk Agar, read-out: Minimum Inhibitory Concentration): 0.78 µg/mL (≈ 1.71 µM)
MIC ([21]; P. aeruginosa AKR17, 10^6 CFU/ml, Sensitivity Disk Agar, read-out: Minimum Inhibitory Concentration): > 25 µg/mL
MIC ([22]; P. aeruginosa AK109, 10^6 CFU/ml, Sensitivity Disk Agar, read-out: Minimum Inhibitory Concentration): 6.25 µg/mL (≈ 13.7 µM)
MIC ([24]; Burkholderia cepacia, P. cepacia 23, 10^6 CFU/ml, Sensitivity Disk Agar, read-out: Minimum Inhibitory Concentration): 3.12 µg/mL (≈ 6.85 µM)
antibacterial activity (in words) [27]: excellent antibacterial activities
antibacterial activity (in words) [25]: excellent activities
